Data: PubChem BioAssay AID192 (DTP/NCI, 2004)
“And” between values parts separate entries of the source, which are not always exact repeats. Equal values may be shown once. Inconclusive results and toxic doses are left out.

Tested on: BDF1 mice, B16 melanoma ip, median survival T/C
Assay: NCI In Vivo Anticancer Drug Screen. Data for tumor model B16 Melanoma (intraperitoneal) in B6D2F1 (BDF1) mice
Conditions: endpoint: median survival time, higher = longer survival
How it was run: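 Tumor-bearing mice received test compound or vehicle. Survival or tumor size was then measured in both groups. The treated-group figure was divided by the control-group figure.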

[1] = dose: 100.0 mg/kg/injection, schedule: Q01DX009 (ip), vehicle: Klucel (hydroxypropylcellulose) (HPC)
[2] = dose: 100.0 mg/kg/injection, schedule: Q04DX003 (ip), vehicle: Klucel (hydroxypropylcellulose) (HPC)
[3] = dose: 200.0 mg/kg/injection, schedule: Q01DX009 (ip), vehicle: Klucel (hydroxypropylcellulose) (HPC)
[4] = dose: 200.0 mg/kg/injection, schedule: Q04DX003 (ip), vehicle: Klucel (hydroxypropylcellulose) (HPC)
[5] = dose: 400.0 mg/kg/injection, schedule: Q01DX009 (ip), vehicle: Klucel (hydroxypropylcellulose) (HPC)
[6] = dose: 50.0 mg/kg/injection, schedule: Q01DX009 (ip), vehicle: Klucel (hydroxypropylcellulose) (HPC)
[7] = dose: 100.0 mg/kg/injection, schedule: Q01DX009 (ip), vehicle: saline with Tween-80
[8] = dose: 200.0 mg/kg/injection, schedule: Q01DX009 (ip), vehicle: saline with Tween-80
[9] = dose: 12.5 mg/kg/injection, schedule: Q01DX009 (ip), vehicle: saline
[10] = dose: 25.0 mg/kg/injection, schedule: Q01DX009 (ip), vehicle: saline
[11] = dose: 50.0 mg/kg/injection, schedule: Q01DX009 (ip), vehicle: saline
[12] = dose: 100.0 mg/kg/injection, schedule: Q01DX009 (ip), vehicle: saline
[13] = dose: 3.12 mg/kg/injection, schedule: Q01DX009 (ip), vehicle: saline with Tween-80
[14] = dose: 6.25 mg/kg/injection, schedule: Q01DX009 (ip), vehicle: saline with Tween-80
[15] = dose: 12.5 mg/kg/injection, schedule: Q01DX009 (ip), vehicle: saline with Tween-80
[16] = dose: 25.0 mg/kg/injection, schedule: Q01DX009 (ip), vehicle: saline with Tween-80
[17] = dose: 6.25 mg/kg/injection, schedule: Q01DX009 (ip), vehicle: Klucel (hydroxypropylcellulose) (HPC)
[18] = dose: 25.0 mg/kg/injection, schedule: Q01DX009 (ip), vehicle: Klucel (hydroxypropylcellulose) (HPC)
[19] = dose: 50.0 mg/kg/injection, schedule: Q01DX009 (ip), vehicle: saline with Tween-80
[20] = dose: 12.5 mg/kg/injection, schedule: Q01DX009 (ip), vehicle: Klucel (hydroxypropylcellulose) (HPC)

## CC[C@@]1(O)C(=O)OCc2c1cc1n(c2=O)Cc2cc3c(OC)cccc3nc2-1
dose: 0.39 mg/kg/injection, schedule: Q01DX009 (ip), vehicle: other
  T/C: 150 % of control
dose: 0.79 mg/kg/injection, schedule: Q01DX009 (ip), vehicle: other
  T/C: 161 % of control
dose: 2.0 mg/kg/injection, schedule: Q01DX009 (ip), vehicle: Klucel (hydroxypropylcellulose) (HPC)
  T/C: 175 % of control
dose: 4.0 mg/kg/injection, schedule: Q01DX009 (ip), vehicle: carboxymethylcellulose (CMC)
  T/C: 172 % of control

## O=[N+]([O-])c1cc([N+](=O)[O-])c(/C=C/c2ccccc2)c([N+](=O)[O-])c1/C=C/c1ccccc1
[1]
  T/C: 105 % of control
[2]
  T/C: 102 % of control
[3]
  T/C: 107 % of control
[4]
  T/C: 94 % of control
[5]
  T/C: 94 % of control
dose: 400.0 mg/kg/injection, schedule: Q04DX003 (ip), vehicle: Klucel (hydroxypropylcellulose) (HPC)
  T/C: 89 % of control

## Cc1cnc2c(N)[nH]nc2n1
[6]
  T/C: 97 % of control
[1]
  T/C: 106 % of control
[3]
  T/C: 107 % of control

## COc1ccc(-c2cc(=O)c3c(ccc4ccccc43)o2)cc1
[1]
  T/C: 94 % of control
[3]
  T/C: 100 % of control
[5]
  T/C: 102 % of control

## O=C(Nc1ccc(Cl)cc1)Nc1ccccc1F
[7]
  T/C: 89 % of control
[8]
  T/C: 86 % of control

## CCCC(=O)O
[9]
  T/C: 106 % of control
[10]
  T/C: 101 % of control
[11]
  T/C: 92 % of control
[12]
  T/C: 106 % of control

## Cc1ccc(Oc2c3c(nc4ccccc24)CCCC3)cc1
[7]
  T/C: 110 % of control
[8]
  T/C: 107 % of control
dose: 400.0 mg/kg/injection, schedule: Q01DX009 (ip), vehicle: saline with Tween-80
  T/C: 92 % of control

## O=c1cccccc1O.O=c1cccccc1O.[Cu]
dose: 0.39 mg/kg/injection, schedule: Q01DX009 (ip), vehicle: Klucel (hydroxypropylcellulose) (HPC)
  T/C: 102 % of control
dose: 0.78 mg/kg/injection, schedule: Q01DX009 (ip), vehicle: Klucel (hydroxypropylcellulose) (HPC)
  T/C: 92 % of control

## C[CH2][Pb]([CH2]C)([CH2]C)[N]1C(=O)c2ccccc2C1=O
dose: 1.56 mg/kg/injection, schedule: Q01DX009 (ip), vehicle: Klucel (hydroxypropylcellulose) (HPC)
  T/C: 112 % of control
dose: 3.12 mg/kg/injection, schedule: Q01DX009 (ip), vehicle: Klucel (hydroxypropylcellulose) (HPC)
  T/C: 109 % of control

## CCC[CH2][Sn]1([CH2]CCC)[O]OC(c2ccc(C)cc2)[O]1 (stereo unspecified)
dose: 0.38 mg/kg/injection, schedule: Q01DX009 (ip), vehicle: saline with Tween-80
  T/C: 96 % of control
dose: 0.75 mg/kg/injection, schedule: Q01DX009 (ip), vehicle: saline with Tween-80
  T/C: 96 % of control
dose: 1.5 mg/kg/injection, schedule: Q01DX009 (ip), vehicle: saline with Tween-80
  T/C: 101 % of control
dose: 3.13 mg/kg/injection, schedule: Q01DX009 (ip), vehicle: saline with Tween-80
  T/C: 115 % of control

## Nc1nc(SCc2ccccc2F)c2ncn(C3OC(CO)C(O)C3O)c2n1 (stereo unspecified)
[13]
  T/C: 105 % of control
[14]
  T/C: 116 % of control
[15]
  T/C: 122 % of control
[16]
  T/C: 95 % of control

## CCC/C=C/C=C/C1CC(O)C(O)C(=O)C1C=O (stereo unspecified)
dose: 1.6 mg/kg/injection, schedule: Q01DX009 (ip), vehicle: saline with Tween-80
  T/C: 105 % of control
[13]
  T/C: 104 % of control
[14]
  T/C: 98 % of control
[15]
  T/C: 98 % of control and 100 % of control

## O=NN(CCCl)C(=O)NC1CCCCC1
dose: 4.0 mg/kg/injection, schedule: Q01DX001 (ip), vehicle: Klucel (hydroxypropylcellulose) (HPC)
  T/C: 102 % of control and 121 % of control
dose: 4.0 mg/kg/injection, schedule: Q01DX001 (ip), vehicle: saline
  T/C: 107 % of control
dose: 7.5 mg/kg/injection, schedule: Q01DX001 (ip), vehicle: other
  T/C: 107 % of control
dose: 8.0 mg/kg/injection, schedule: Q01DX001 (ip), vehicle: Klucel (hydroxypropylcellulose) (HPC)
  T/C: 102 % of control
dose: 12.5 mg/kg/injection, schedule: Q01DX010 (ip), vehicle: saline
  T/C: 115 % of control
dose: 25.0 mg/kg/injection, schedule: Q01DX010 (ip), vehicle: saline
  T/C: 110 % of control
dose: 30.0 mg/kg/injection, schedule: Q01DX001 (ip), vehicle: other
  T/C: 198 % of control
dose: 32.0 mg/kg/injection, schedule: Q01DX001 (ip), vehicle: Klucel (hydroxypropylcellulose) (HPC)
  T/C: 182 % of control and 312 % of control
dose: 50.0 mg/kg/injection, schedule: Q01DX010 (ip), vehicle: saline
  T/C: 113 % of control
dose: 100.0 mg/kg/injection, schedule: Q01DX010 (ip), vehicle: saline
  T/C: 102 % of control

## CC(=O)OC(C)c1ccccc1 (stereo unspecified)
[1]
  T/C: 93 % of control
[3]
  T/C: 96 % of control

## CS(=O)(=O)Nc1ccc(C(=O)O)cc1
[1]
  T/C: 100 % of control
[3]
  T/C: 102 % of control

## CN(C)[C@@H]1C(=O)C(C(=O)NCN(CCCl)CCCl)=C(O)[C@@]2(O)C(=O)C3=C(O)c4c(O)cccc4[C@@](C)(O)[C@H]3C[C@@H]12
dose: 3.13 mg/kg/injection, schedule: Q01DX009 (ip), vehicle: Klucel (hydroxypropylcellulose) (HPC)
  T/C: 98 % of control
[17]
  T/C: 113 % of control
[18]
  T/C: 97 % of control

## CCO/C=C1\SC(=S)N(c2cccc(O)c2)C1=O
[18]
  T/C: 102 % of control
[6]
  T/C: 102 % of control
[1]
  T/C: 101 % of control

## O=C(O)CNc1ccccc1C(=O)O
[6]
  T/C: 108 % of control
[1]
  T/C: 94 % of control
[3]
  T/C: 91 % of control

## O=C(SCC(NSc1ccccc1[N+](=O)[O-])C(=O)O)c1ccccc1 (stereo unspecified)
dose: 50.0 mg/kg/injection, schedule: Q04DX003 (ip), vehicle: Klucel (hydroxypropylcellulose) (HPC)
  T/C: 113 % of control
[2]
  T/C: 100 % of control
[4]
  T/C: 94 % of control

## CCCCCCCCCCCCCCCC(=O)N(C(C)CCCN(CC)CC)C(C)CCCN(CC)CC (stereo unspecified)
dose: 3.13 mg/kg/injection, schedule: Q01DX009 (ip), vehicle: other
  T/C: 91 % of control
dose: 12.5 mg/kg/injection, schedule: Q01DX009 (ip), vehicle: other
  T/C: 92 % of control

## NCCCCS(=O)(=O)Nc1ccc(Nc2c3ccccc3nc3cc([N+](=O)[O-])ccc23)cc1
dose: 50.0 mg/kg/injection, schedule: Q01DX001 (ip), vehicle: saline sonified
  T/C: 97 % of control
dose: 100.0 mg/kg/injection, schedule: Q01DX001 (ip), vehicle: saline sonified
  T/C: 105 % of control
dose: 200.0 mg/kg/injection, schedule: Q01DX001 (ip), vehicle: saline sonified
  T/C: 113 % of control

## CCOC(=O)C(Cl)CCl (stereo unspecified)
[6]
  T/C: 100 % of control
[1]
  T/C: 100 % of control

## O=C(CCCCC(=O)Nc1ccc(C2=NCCN2)cc1)Nc1ccc(C2=NCCN2)cc1
dose: 50.0 mg/kg/injection, schedule: Q04DX003 (ip), vehicle: saline
  T/C: 96 % of control
dose: 100.0 mg/kg/injection, schedule: Q04DX003 (ip), vehicle: saline
  T/C: 93 % of control
dose: 200.0 mg/kg/injection, schedule: Q04DX003 (ip), vehicle: saline
  T/C: 90 % of control
dose: 400.0 mg/kg/injection, schedule: Q04DX003 (ip), vehicle: saline
  T/C: 86 % of control

## NC(=O)C(Br)CBr (stereo unspecified)
[18]
  T/C: 92 % of control
[16]
  T/C: 111 % of control
[6]
  T/C: 105 % of control
[19]
  T/C: 108 % of control
[1]
  T/C: 107 % of control
[7]
  T/C: 106 % of control

## COc1c(CNC(=O)CCl)cc2[nH]c(C)cc2c1CNC(=O)CCl
[17]
  T/C: 101 % of control
[20]
  T/C: 106 % of control
[18]
  T/C: 103 % of control
[6]
  T/C: 104 % of control
[1]
  T/C: 108 % of control
[3]
  T/C: 97 % of control

## CC(=O)Nc1ccc(S(=O)(=O)N/N=C\c2ccc(Cl)c(Cl)c2)cc1
[14]
  T/C: 111 % of control
[15]
  T/C: 105 % of control
[16]
  T/C: 117 % of control

## CC1CCCN(c2ccc([N+](=O)[O-])cc2[N+](=O)[O-])C1 (stereo unspecified)
[1]
  T/C: 93 % of control
[5]
  T/C: 100 % of control

## CN(C1CCCCC1)C1CCCCC1
[17]
  T/C: 92 % of control
[20]
  T/C: 92 % of control
[18]
  T/C: 94 % of control

## CCOC(=O)C(OCC)P(=O)(OCC)OCC (stereo unspecified)
[18]
  T/C: 95 % of control
[6]
  T/C: 95 % of control
[1]
  T/C: 107 % of control
[3]
  T/C: 102 % of control
[5]
  T/C: 100 % of control

## CCOC(=O)c1[nH]c(C)nc1/N=N/N(C)C
[9]
  T/C: 111 % of control
[10]
  T/C: 110 % of control
[11]
  T/C: 111 % of control
[12]
  T/C: 123 % of control

## CC(=O)N(C)O
[16]
  T/C: 98 % of control
[19]
  T/C: 107 % of control
[7]
  T/C: 101 % of control
[8]
  T/C: 103 % of control
